Laboratory results as given in patent publication US11021457B2, “Class of isoindolone-imide ring-1,3-dione-2-ene compounds, composition and use thereof” (WIGEN BIOMEDICINE TECHNOLOGY (SHANGHAI) CO., LTD., priority 2017, dated 2021).
Read-outs that look alike come from different tables or passages of the source.

Columns and labels:
LC3B = LC3B (Homo sapiens (Human), UniProt Q9GZQ8); assay: Fluorescence polarization experiment targeting LC3B (GST-LC3B with FITC-labeled peptide)
MDA-MB-453 = assay: Inhibition of tumor cell proliferation, CellTiter-Glo, MDA-MB-453; format: cell-based; conditions: compound concentration 50 μM, 72 hours
In short: (§1)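 Activity is graded from survival at 50 μM: + for 60 to under 90%, ++ for over 30 to 60%, +++ for 30% or less. Survival was measured luminescently (CellTiter-Glo) 72 h after dosing, relative to untreated and blank wells; 2000-10000 cells/well, 37° C, 5% CO2.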

BxPC-3 = assay: Inhibition of tumor cell proliferation, CellTiter-Glo, BxPC-3; format: cell-based; conditions: compound concentration 50 μM, 72 hours
In short: as §1

RPMI-8226 = assay: Inhibition of tumor cell proliferation, CellTiter-Glo, RPMI-8226; format: cell-based; conditions: compound concentration 50 μM, 72 hours
In short: as §1

A549 = assay: Inhibition of tumor cell proliferation, CellTiter-Glo, A549; format: cell-based; conditions: compound concentration 50 μM, 72 hours
In short: as §1

SU-DHL6 = assay: Inhibition of tumor cell proliferation, CellTiter-Glo, SU-DHL6; format: cell-based; conditions: compound concentration 50 μM, 72 hours
In short: as §1

K562 = assay: Inhibition of tumor cell proliferation, CellTiter-Glo, K562; format: cell-based; conditions: compound concentration 50 μM, 72 hours
In short: as §1

[1] = GST-LC3B 180 nM, FITC-labeled peptide 18 nM, 25° C.

Compound	IC50 (LC3B; [1]) [µM]	Inhibitory activity against proliferation (cell survival rate) MDA-MB-453 (MDA-MB-453)	Inhibitory activity against proliferation (cell survival rate) BxPC-3 (BxPC-3)	Inhibitory activity against proliferation (cell survival rate) RPMI-8226 (RPMI-8226)	Inhibitory activity against proliferation (cell survival rate) A549 (A549)	Inhibitory activity against proliferation (cell survival rate) SU-DHL6 (SU-DHL6)	Inhibitory activity against proliferation (cell survival rate) K562 (K562)	IC50 (LC3B) [µM]	cell survival rate (%) at 50 µM (MDA-MB-453; Homo sapiens, MDA-MB-453, read-out: Inhibitory activity against proliferation (cell survival rate) MDA-MB-453) [%]	cell survival rate (%) at 50 µM (BxPC-3; Homo sapiens, BXPC-3, read-out: Inhibitory activity against proliferation (cell survival rate) BxPC-3) [%]	cell survival rate (% of control) at 50 µM (RPMI-8226; Homo sapiens, RPMI-8226, read-out: Inhibitory activity against proliferation (cell survival rate) RPMI-8226) [%]	cell survival rate (% of control) at 50 µM (SU-DHL6; Homo sapiens, SU-DHL-6, read-out: Inhibitory activity against proliferation (cell survival rate) SU-DHL6) [%]	cell survival rate (%) at 50 µM (K562; Homo sapiens, K562, read-out: Inhibitory activity against proliferation (cell survival rate) K562) [%]
O=C1CCC(N2Cc3c(NC=C4C(=O)CC(c5cccc6[nH]ccc56)CC4=O)cccc3C2=O)C(=O)N1 (stereo not shown) [Compound 3]	< 3	++ (30<survival rate (%)≤60)	+ (60≤survival rate (%)<90)	+ (60≤survival rate (%)<90)	+ (60≤survival rate (%)<90)	+++ (survival rate (%)≤30)	+ (60≤survival rate (%)<90)						
O=C1CCC(N2C(=O)c3cccc(NC=C4C(=O)CC(c5cccc6[nH]ccc56)CC4=O)c3C2=O)C(=O)N1 (stereo not shown) [Compound 5]	< 3	+++ (survival rate (%)≤30)	+ (60≤survival rate (%)<90)	+ (60≤survival rate (%)<90)	+++ (survival rate (%)≤30)	+ (60≤survival rate (%)<90)	+ (60≤survival rate (%)<90)						
O=C1CCC(N2C(=O)c3cccc(NC=C4C(=O)CC(c5cccc(Cl)c5Cl)CC4=O)c3C2=O)C(=O)N1 (stereo not shown) [Compound 6]	< 3	+ (60≤survival rate (%)<90)	+ (60≤survival rate (%)<90)	+ (60≤survival rate (%)<90)	+ (60≤survival rate (%)<90)	+ (60≤survival rate (%)<90)	+ (60≤survival rate (%)<90)						
O=C1CCC(N2Cc3c(NC=C4C(=O)CC(c5cccc(Cl)c5Cl)CC4=O)cccc3C2=O)C(=O)N1 (stereo not shown) [Compound 7]	< 3	++ (30<survival rate (%)≤60)	+ (60≤survival rate (%)<90)	++ (30<survival rate (%)≤60)	++ (30<survival rate (%)≤60)	+++ (survival rate (%)≤30)	++ (30<survival rate (%)≤60)						
O=C1CCC(N2Cc3c(NC=C4C(=O)CC(c5c(Br)ccc(F)c5Cl)CC4=O)cccc3C2=O)C(=O)N1 (stereo not shown) [Compound 11]	< 3	+ (60≤survival rate (%)<90)	+ (60≤survival rate (%)<90)	+ (60≤survival rate (%)<90)	+ (60≤survival rate (%)<90)	+ (60≤survival rate (%)<90)	+++ (survival rate (%)≤30)						
O=C1CCC(N2C(=O)c3cccc(NC=C4C(=O)CC(c5cccc6[nH]cc(Cl)c56)CC4=O)c3C2=O)C(=O)N1 (stereo not shown) [Compound 12]	< 3	+ (60≤survival rate (%)<90)	+ (60≤survival rate (%)<90)	+ (60≤survival rate (%)<90)	+ (60≤survival rate (%)<90)	+ (60≤survival rate (%)<90)	+ (60≤survival rate (%)<90)						
O=C1CCC(N2C(=O)c3cccc(NC=C4C(=O)CC(c5c(Br)ccc6[nH]cc(Cl)c56)CC4=O)c3C2=O)C(=O)N1 (stereo not shown) [Compound 13]	< 3	+++ (survival rate (%)≤30)	++ (30<survival rate (%)≤60)	+ (60≤survival rate (%)<90)	+++ (survival rate (%)≤30)	++ (30<survival rate (%)≤60)	+ (60≤survival rate (%)<90)						
O=C1CCC(N2Cc3c(NC=C4C(=O)CC(c5c(Br)ccc6[nH]cc(Cl)c56)CC4=O)cccc3C2=O)C(=O)N1 (stereo not shown) [Compound 14]	< 3	+++ (survival rate (%)≤30)	+ (60≤survival rate (%)<90)	+ (60≤survival rate (%)<90)	+++ (survival rate (%)≤30)	++ (30<survival rate (%)≤60)	+ (60≤survival rate (%)<90)						
O=C1CCC(N2Cc3c(NC=C4C(=O)CC(c5cccc6[nH]cc(C(F)(F)F)c56)CC4=O)cccc3C2=O)C(=O)N1 (stereo not shown) [Compound 15]	< 3	+ (60≤survival rate (%)<90)	++ (30<survival rate (%)≤60)	+++ (survival rate (%)≤30)	+ (60≤survival rate (%)<90)	++ (30<survival rate (%)≤60)	+ (60≤survival rate (%)<90)						
O=C1CCC(N2Cc3c(NC=C4C(=O)CC(c5c(Br)ccc6[nH]cc(C(F)(F)F)c56)CC4=O)cccc3C2=O)C(=O)N1 (stereo not shown) [Compound 16]	< 3	+ (60≤survival rate (%)<90)	+ (60≤survival rate (%)<90)	+++ (survival rate (%)≤30)	+ (60≤survival rate (%)<90)	+ (60≤survival rate (%)<90)	+ (60≤survival rate (%)<90)						
O=C1CCC(N2C(=O)c3cccc(NC(=O)CNC=C4C(=O)CC(c5ccccc5)CC4=O)c3C2=O)C(=O)N1 (stereo not shown) [Compound 49]	100 to 1000	++ (30<survival rate (%)≤60)	+ (60≤survival rate (%)<90)	++ (30<survival rate (%)≤60)	++ (30<survival rate (%)≤60)	++ (30<survival rate (%)≤60)							
CC(C)[C@H](NC(=O)CN1CCN(CCNC=C2C(=O)CC(c3ccccc3)CC2=O)CC1)C(=O)N[C@@H](CCCNC(N)=O)C(=O)Nc1cccc2c1CN(C1CCC(=O)NC1=O)C2=O (stereo partly shown) [Compound 60]	15 to 100	+ (60≤survival rate (%)<90)	++ (30<survival rate (%)≤60)	+++ (survival rate (%)≤30)		++ (30<survival rate (%)≤60)	+ (60≤survival rate (%)<90)						
O=C1CCC(N2C(=O)c3cccc(NC(=O)[C@@H]4C[C@H](O)CN4CCNC=C4C(=O)CC(c5ccccc5)CC4=O)c3C2=O)C(=O)N1 (stereo partly shown) [Compound 64]	15 to 100	+++ (survival rate (%)≤30)	+ (60≤survival rate (%)<90)	++ (30<survival rate (%)≤60)		+++ (survival rate (%)≤30)	+++ (survival rate (%)≤30)						
CC(Nc1cccc2c1C(=O)N(C1CCC(=O)NC1=O)C2=O)=C1C(=O)CC(c2ccccc2)CC1=O (stereo not shown) [Compound 76]	100 to 1000		++ (30<survival rate (%)≤60)	+++ (survival rate (%)≤30)	+++ (survival rate (%)≤30)	+++ (survival rate (%)≤30)	+++ (survival rate (%)≤30)						
CN1C(=O)/C(=C\Nc2cccc3c2CN(C2CCC(=O)NC2=O)C3=O)C(=O)c2ccc(C(F)(F)F)cc21 (stereo not shown) [Compound 136]								3 to 15	≤ 30	60 to 90	≤ 30	60 to 90	30 to 60
